Laboratory results reported in US5789431A, “Naphthoquinone antitumor compound and method” (The University of North Carolina at Chapel Hill, priority 1996, dated 1998).

Columns and labels:
SR = assay: in vitro leukemia cell growth inhibition (NCI screen)
ACHN = assay: in vitro renal cancer cell growth inhibition (NCI screen)
HL-60(TB) = assay: in vitro leukemia cell growth inhibition (NCI screen)
UACC-62 = assay: in vitro melanoma cell growth inhibition (NCI screen)
HT 29 = assay: in vitro colon cancer cell growth inhibition (NCI screen)
UACC-257 = assay: in vitro melanoma cell growth inhibition (NCI screen)
SK-MEL-5 = assay: as above
SN12C = assay: in vitro renal cancer cell growth inhibition (NCI screen)
UO-31 = assay: as above
M19-MEL = assay: in vitro melanoma cell growth inhibition (NCI screen)
XF-498 = assay: in vitro CNS cancer cell growth inhibition (NCI screen)
NCI-H522 = assay: in vitro non-small cell lung cancer cell growth inhibition (NCI screen)
NCI-H460 = assay: as above
NCI-H23 = assay: as above
HOP-92 = assay: as above
OVCAR-3 = assay: in vitro ovarian cancer cell growth inhibition (NCI screen)
SNB-75 = assay: in vitro CNS cancer cell growth inhibition (NCI screen)
MALME-3M = assay: in vitro melanoma cell growth inhibition (NCI screen)
K-562 = assay: in vitro leukemia cell growth inhibition (NCI screen)
LOX1MVI = assay: in vitro melanoma cell growth inhibition (NCI screen)
MOLT-4 = assay: in vitro leukemia cell growth inhibition (NCI screen)
HCT-15 = assay: in vitro colon cancer cell growth inhibition (NCI screen)
SF-539 = assay: in vitro CNS cancer cell growth inhibition (NCI screen)
HCT-116 = assay: in vitro colon cancer cell growth inhibition (NCI screen)
U 251 = assay: in vitro CNS cancer cell growth inhibition (NCI screen)
OVCAR-4 = assay: in vitro ovarian cancer cell growth inhibition (NCI screen); details: OVACR-4
COLO-205 = assay: in vitro colon cancer cell growth inhibition (NCI screen)
SW 620 = assay: as above
PC-3 = assay: in vitro prostate cancer cell growth inhibition (NCI screen)
M14 = assay: in vitro melanoma cell growth inhibition (NCI screen)
HCC-2998 = assay: in vitro colon cancer cell growth inhibition (NCI screen)
OVCAR-8 = assay: in vitro ovarian cancer cell growth inhibition (NCI screen)
MCF7/ADR-RES = assay: in vitro breast cancer cell growth inhibition (NCI screen)
MDA-N = assay: as above
RXF-393 = assay: in vitro renal cancer cell growth inhibition (NCI screen)
MDA-MB-435 = assay: in vitro breast cancer cell growth inhibition (NCI screen)
KM 20L2 = assay: in vitro colon cancer cell growth inhibition (NCI screen)
human tumor cell lines = type: cell-based; details: for GI50: Homo sapiens, cancer cell panel, general / most cell lines, read-out: logGI50 values in the cancer cell line panel (converted)
SK-MEL-2 = assay: in vitro melanoma cell growth inhibition (NCI screen)
IGROV1 = assay: in vitro ovarian cancer cell growth inhibition (NCI screen)
BT-549 = assay: in vitro breast cancer cell growth inhibition (NCI screen)
T-47D = assay: as above
TK-10 = assay: in vitro renal cancer cell growth inhibition (NCI screen)
MCF-7 = assay: in vitro breast cancer cell growth inhibition (NCI screen)
NCI-H266 = assay: in vitro non-small cell lung cancer cell growth inhibition (NCI screen)
KM 12 = assay: in vitro colon cancer cell growth inhibition (NCI screen)
RPMI-8226 = assay: in vitro leukemia cell growth inhibition (NCI screen)
CCRF-CEM = assay: as above
SK-MEL-28 = assay: in vitro melanoma cell growth inhibition (NCI screen)

Compound | cytotoxicity log GI50 (ACHN) [M] | cytotoxicity log GI50 (HL-60(TB)) [M] | cytotoxicity log GI50 (UACC-62) [M] | cytotoxicity log GI50 (HT 29) [M] | cytotoxicity log GI50 (UACC-257) [M] | cytotoxicity log GI50 (SK-MEL-5) [M] | cytotoxicity log GI50 (M19-MEL) [M] | cytotoxicity log GI50 (NCI-H522) [M] | cytotoxicity log GI50 (NCI-H460) [M] | cytotoxicity log GI50 (NCI-H23) [M] | cytotoxicity log GI50 (HOP-92) [M] | cytotoxicity log GI50 (OVCAR-3) [M] | cytotoxicity log GI50 (MALME-3M) [M] | cytotoxicity log GI50 (K-562) [M] | cytotoxicity log GI50 (MOLT-4) [M] | cytotoxicity log GI50 (HCT-15) [M] | cytotoxicity log GI50 (HCT-116) [M] | cytotoxicity log GI50 (COLO-205) [M] | cytotoxicity log GI50 (SW 620) [M] | cytotoxicity log GI50 (PC-3) [M] | also measured
Cc1nc2c(n1C(C)(C)C)C(=O)c1ccccc1C2=O [Compound 8] | -4.31 | -4.34 | -4.35 | -4.36 | -4.37 | -4.41 | -4.61 | -4.36 | -4.44 | -4.42 | -5.03 | -4.41 | -4.35 | -4.30 | -4.31 |  |  |  |  |  | cytotoxicity log GI50 (SR): -4.35 M; cytotoxicity log GI50 (SN12C): -4.30 M; cytotoxicity log GI50 (UO-31): -4.43 M; cytotoxicity log GI50 (XF-498): -4.36 M; cytotoxicity log GI50 (SNB-75): -4.50 M; cytotoxicity log GI50 (LOX1MVI): -4.38 M
CC(=O)NC1=C(NCCN(C)C)C(=O)c2ccccc2C1=O [Compound 39] |  | -5.01 | -4.98 |  | -5.03 | -5.14 | -5.12 | -4.99 | -4.89 | -4.94 |  |  | -5.12 | -4.91 |  | -5.02 | -5.08 | -5.00 |  |  | cytotoxicity log GI50 (SF-539): -4.93 M; cytotoxicity log GI50 (SN12C): -4.98 M; cytotoxicity log GI50 (U 251): -4.99 M; cytotoxicity log GI50 (OVCAR-4): -5.05 M; cytotoxicity log GI50 (LOX1MVI): -4.90 M
CCNC1=C(NC(=O)c2ccc(OC)cc2)C(=O)c2ccccc2C1=O [Compound 49] |  |  | -4.40 | -4.63 | -4.71 | -4.46 |  | -4.51 |  | -4.36 |  | -4.62 | -4.67 |  | -4.44 |  | -4.44 | -4.43 | -4.36 | -4.48 | cytotoxicity log GI50 (M14): -4.67 M; cytotoxicity log GI50 (HCC-2998): -4.43 M; cytotoxicity log GI50 (OVCAR-8): -4.61 M; cytotoxicity log GI50 (MCF7/ADR-RES): -4.54 M; cytotoxicity log GI50 (OVCAR-4): -4.46 M; cytotoxicity log GI50 (MDA-N): -4.43 M; cytotoxicity log GI50 (RXF-393): -4.55 M; cytotoxicity log GI50 (MDA-MB-435): -4.77 M
Cc1nc2c(n1CCN(C)C)C(=O)c1ccccc1C2=O [Compound 15] |  | -5.28 | -4.92 | -4.98 |  | -5.13 | -5.69 | -5.27 | -5.01 | -4.92 |  | -5.15 | -5.55 |  |  | -4.89 |  | -5.35 |  |  | cytotoxicity log GI50 (SR): -4.93 M; cytotoxicity log GI50 (KM 20L2): -5.20 M; cytotoxicity log GI50 (M14): -4.93 M; cytotoxicity against tumor cells (in words) (human tumor cell lines; cancer cell line panel): comparable to those of compounds 6-14; cytotoxicity log GI50 (SK-MEL-2): -4.91 M
O=C(NC1=C(Cl)C(=O)c2ccccc2C1=O)c1ccccc1 [Compound 2e, 2-Benzoylamino-3-chloro-1,4-naphthoquinone] | -4.68 |  | -4.62 |  |  |  |  | -4.62 |  | -4.62 | -4.60 | -4.72 | -4.77 | -4.66 | -4.70 | -4.60 | -4.76 | -4.81 | -4.76 | -4.60 | cytotoxicity log GI50 (IGROV1): -4.66 M; cytotoxicity log GI50 (BT-549): -4.70 M; GI50 (human tumor cell lines): 10 to 100 µM; cytotoxicity log GI50 (T-47D): -4.66 M; cytotoxicity log GI50 (TK-10): -4.64 M; cytotoxicity log GI50 (MCF7/ADR-RES): -4.73 M; cytotoxicity log GI50 (MCF-7): -4.72 M; cytotoxicity log GI50 (MDA-N): -5.30 M; cytotoxicity log GI50 (RXF-393): -4.72 M; cytotoxicity log GI50 (NCI-H266): -4.61 M; cytotoxicity log GI50 (MDA-MB-435): -4.72 M
COc1ccc(C(=O)NC2=C(Cl)C(=O)c3ccccc3C2=O)cc1 [Compound 2g] | -6.44 | -6.35 | -6.12 |  | -5.79 | -5.89 |  | -6.42 |  |  | -5.82 | -5.79 | -5.92 | -5.85 |  | -6.37 | -6.36 | -5.76 | -6.17 | -5.90 | cytotoxicity log GI50 (BT-549): -5.77 M; cytotoxicity log GI50 (M14): -6.20 M; GI50 (human tumor cell lines): ~1 µM; cytotoxicity log GI50 (U 251): -5.83 M; cytotoxicity log GI50 (T-47D): -5.90 M; cytotoxicity log GI50 (KM 12): -5.82 M; cytotoxicity log GI50 (RPMI-8226): -6.02 M; cytotoxicity log GI50 (MCF7/ADR-RES): -5.85 M; cytotoxicity log GI50 (CCRF-CEM): -6.10 M; cytotoxicity log GI50 (RXF-393): -6.23 M; cytotoxicity log GI50 (NCI-H266): -5.87 M; cytotoxicity log GI50 (SK-MEL-28): -6.17 M
CC(=O)NC1=C(NCCO)C(=O)c2ccccc2C1=O [Compound 40] |  | -4.68 |  |  |  | -4.53 | -5.01 | -4.61 |  |  |  | -4.72 | -4.89 |  |  |  | -4.52 |  |  |  | cytotoxicity log GI50 (KM 20L2): -4.62 M
